Measured values from patent publication US20170065564A1, “BIS-CYCLIC GUANIDINE COMPOUND COMPOSITIONS, METHODS OF USE AND TREATMENT THEREOF” (University of South Florida, priority 2014, published 2017).

Key:
[1] = tested on: MRSA cells; assay: Time kill assay (lysis by OD600, viability by CFU); assay type: cell-based, Staphylococcus aureus; conditions: for cell recovery (viability, CFU/mL vs no drug control): after the 120 minute assay, agent washed out; for cells remaining after exposure (optical density relative to starting values): MRSA, 2.0% SDS, 0.001% benzalkonium chloride, 0.001% benzethonium chloride
Method: FIGS. 6A and 6B illustrates that bis-cyclic guanidines are bactericidal but not bacteriolytic. […] Shown is the optical density of cells relative to starting values from three independent experiments. Error bars are shown ±SEM. FIG. 8B is a graph illustrating cell viability of all samples after the 120 min experiment. Compounds were removed by centrifugation and washing of cells, followed by serial dilution and enumeration. Percent recovery was determined by comparison to no drug (ND) controls.
Time kill assays were performed in a 96-well microtiter plate using a BioTek Synergy2 plate reader. To prepare bacterial cultures, stationary phase MRSA cells were inoculated into fresh TSB and grown for 3 hours. After this time, cultures were inoculated into a 96-well microtiter plate at an OD600 of 0.5, followed by the addition of test agent at MIC concentrations. In parallel, 2.0% sodium dodecyl sulfate (SDS), 0.001% benzalkonium chloride, 0.001% benzethonium chloride, and 4 μM lysostaphin were used as positive controls. […] Assays were performed in triplicate over the span of 130 minutes, with OD600 readings taken every 10 minutes.

[2] = tested on: S. aureus; assay: Resistance serial passage assay; assay type: cell-based, Staphylococcus aureus; conditions: 8 passages, concentration doubled each day
Method: (§1) ESKAPE pathogens were grown overnight in liquid media at 37° C. These cultures were then diluted 1:100 in fresh media, and seeded into a 96-well plate. Lead bis-cyclic guanidines or control agents were added to respective wells at half MIC concentrations. Plates were then incubated for 24 hours at 37° C., with bacteria removed from these cultures on the following day, to inoculate fresh media (1:100 dilution) containing compounds at a 2-fold higher concentrations. These were then grown overnight, and the procedure repeated for a total of eight days. […] Each experiment was performed in triplicate, yielding identical results.

[3] = tested on: Staphylococcus aureus (USA300 strain FPR3757); assay: Murine model of lethal peritonitis; assay type: in vivo, mice; conditions: I.V.
Method: Using MRSA as a representative ESKAPE organism, we infected mice with 1×10^8 bacterial cells in 5% mucin via intraperitoneal injection. At 1 h post-infection, mice were then I.V. injected with either vancomycin (positive control), or I.M. with our front runner compounds.
Six mice per group were injected with 1×10^8 CFU ml^−1 of Staphylococcus aureus (USA300 strain FPR3757) in PBS containing 5% mucin. […] Mice were monitored twice daily for five days to assess mortality. The clinical endpoint of this study was when the mice reached a pre-moribund state. Characteristics of pre-moribund state include: hunched posture, rapid, shallow and/or labored breathing, ruffled fur, lethargy, failure to respond to stimuli, soiled anogenital area, paralysis, paresis, head tilt, circling, vocalizations, non-purposeful movements and/or were unable to eat or drink. Those mice reaching this state prior to the completion of the 5 day infection period were euthanized. The number of mice surviving between control and treatment groups was compared and analyzed for statistical significance using a log rank test.

[4] = tested on: P. aeruginosa; assay: MIC reanalysis in the presence of the efflux inhibitor reserpine; assay type: cell-based, Pseudomonas aeruginosa; conditions: P. aeruginosa isolate 1420; 100 μM of reserpine or 2 μM of compound 1 individually
Description: Given the minor variations observed in MIC for three of the Gram-negative organisms, and that these particular bacteria are renowned for efflux detoxification of antibacterial agents, we hypothesized that the differences observed likely relate to variation in efflux pump activity between strains. […] The effects observed appear to be universal, regardless of strain or compound tested. […] It should be noted that the data presented herein represents a worst-case scenario. […] Similar data was returned for all front runner agents, against all 10 isolates of the three Gram-negative organisms (data not shown). These findings support the hypothesis that inherent efflux mechanisms of certain Gram-negative organisms result in MIC variations for the lead bis-cyclic guanidines between clinical isolates.

[5] = tested on: K. pneumoniae; assay: Resistance serial passage assay; assay type: cell-based, Klebsiella pneumoniae; conditions: 8 passages, concentration doubled each day
Method: as §1

[6] = tested on: Staphylococcus aureus; assay: MIC micro broth dilution assay; assay type: cell-based; design: key to stacked score activity, 100/MIC, S: stacked score = 100/MIC; conditions: S. aureus
Method: (§2) For this study we used a representative panel of multi-drug resistant clinical ESKAPE pathogen isolates (Supplemental Table S6).^42 43 3a, 44 45 Gram-positive organisms were grown in tryptic soy broth media (TSB), whilst Gram-negative organisms were grown in lysogeny Broth (LB), as described by us previously. ^43 MIC and MBC determination assays.
(§3) Broth cultures of ESKAPE strains were grown overnight before being diluted 1 in 1,000 in fresh media. Sterile 96-well plates were loaded with culture and compounds (in DMF) were added at decreasing concentrations to equal a total volume of 200 μl per well. Care was taken to not add more than 2.0% DMF to any well. Plates were then incubated at 37° C., and MICs determined after 24 hours by visual inspection for a lack of turbidity in wells. All assays were performed in triplicate with identical results obtained. For both the scaffold ranking and positional scanning samples, relative broad-spectrum activity was determined via stacked scores: […]

[7] = tested on: Klebsiella pneumoniae; assay: MIC micro broth dilution assay; assay type: cell-based; design: key to stacked score activity, 100/MIC, K: stacked score = 100/MIC; conditions: K. pneumoniae
Method: as §2, §3

[8] = tested on: Acinetobacter baumannii; assay: MIC micro broth dilution assay; assay type: cell-based; design: key to stacked score activity, 100/MIC, A: stacked score = 100/MIC; conditions: A. baumannii
Method: as §2, §3

[9] = tested on: Enterobacter cloacae; assay: MIC micro broth dilution assay; assay type: cell-based; design: key to stacked score activity, 100/MIC, E: stacked score = 100/MIC; conditions: E. cloacae
Method: as §2, §3

[10] = tested on: Enterococcus faecium; assay: MIC micro broth dilution assay; assay type: cell-based; design: key to stacked score activity, 100/MIC, E: stacked score = 100/MIC; conditions: E. faecium
Method: as §2, §3

[11] = tested on: ESKAPE pathogens; assay: MIC micro broth dilution assay, statements and stacked scores over all ESKAPE pathogens; assay type: cell-based; conditions: letters E,S,K,A,P,E = ESKAPE pathogens, — = none
Method: as §2
as §3, with “The minimum inhibitory concentration (MIC) for the combinatorial libraries, deconvolved 2157 library, and individual compounds were determined as follows. Broth” for “Broth”

[12] = tested on: human red blood cells (hRBCs)
Method: A hemolysis assay was performed using whole human blood (Bioreclamation), as described previously,^47 with the following modifications. Human red blood cells (hRBCs) were resuspended 20% v/v in 1× HA buffer (4.25 ml 10% NaCl; 1 ml CaCl2 in 50 ml sterile water), and lead agents were added at a concentration of 10 μM, to a final volume of 100 μl. Cells were incubated for 15 minutes at 37° C. before being centrifuged at 5,500 g for 1 minute to pellet non-lysed hRBCs. The supernatant was removed, added to a 96-well microtiter plate and the OD543 read using a Biotek synergy2 plate reader. The negative control was vehicle only (DMF), and the positive control was 1.0% triton X-100.

benzalkonium chloride [listing 1 of 2 here]
cell recovery (viability, CFU/mL vs no drug control) [1]: 0%

lysostaphin: a S. aureus specific lytic agent, positive control
cell recovery (viability, CFU/mL vs no drug control) [1]: 0%
lysis of MRSA cells ([1]; within 10 minutes of exposure, 4 μM lysostaphin): > 50%

CN[C@H](CC(C)C)C(=O)N[C@H]1C(=O)N[C@@H](CC(N)=O)C(=O)N[C@H]2C(=O)N[C@H]3C(=O)N[C@H](C(=O)N[C@H](C(=O)O)c4cc(O)cc(O)c4-c4cc3ccc4O)[C@H](O)c3ccc(c(Cl)c3)Oc3cc2cc(c3O[C@@H]2O[C@H](CO)[C@@H](O)[C@H](O)[C@H]2O[C@H]2C[C@](C)(N)[C@H](O)[C@H](C)O2)Oc2ccc(cc2Cl)[C@H]1O [vancomycin, reference compound]
increase in MIC after serial passage [2]: 128 fold
protectivity ([3]; 5× MIC, 1 h post-infection (not significant)): 50%
protectivity ([3]; 10× MIC, 1 h post-infection): 100%

COC(=O)[C@H]1[C@H]2C[C@@H]3c4[nH]c5cc(OC)ccc5c4CCN3C[C@H]2C[C@@H](OC(=O)c2cc(OC)c(OC)c(OC)c2)[C@@H]1OC [reserpine, reference compound]
effect on growth, agent alone [4]: no effect

CCCCCCCCCCCCOS(=O)(=O)[O-].[Na+] [SDS, sodium dodecyl sulfate]
cells remaining after exposure (optical density relative to starting values) [1]: 52.2%
cell recovery (viability, CFU/mL vs no drug control) [1]: 0%

CO[C@H]1/C=C/O[C@@]2(C)Oc3c(C)c(O)c4c(O)c(c(/C=N/N5CCN(C)CC5)c(O)c4c3C2=O)NC(=O)/C(C)=C\C=C\[C@H](C)[C@H](O)[C@@H](C)[C@@H](O)[C@@H](C)[C@H](OC(C)=O)[C@@H]1C [rifampin, reference compound]
increase in MIC after serial passage [5]: 128 fold

CCCC[C@H]1CN(CCCC[C@H]2CNC(=N)N2CCc2cccc(C(F)(F)F)c2)C(=N)N1CCc1ccc(-c2ccccc2)cc1 [Compound 3]
stacked score activity, 100/MIC, S [6]: 33
stacked score activity, 100/MIC, K [7]: 25
stacked score activity, 100/MIC, A [8]: 25
stacked score activity, 100/MIC, E [9]: 20
stacked score activity, 100/MIC, E [10]: 25
pathogens against which the compound showed activity at 4 ug/ml [11]: ESKA
pathogens against which the compound showed activity at 5 ug/ml [11]: ESKAPE
pathogens against which the compound showed activity at 10 ug/ml [11]: ESKAPE
pathogens against which the compound showed activity at 25 ug/ml [11]: ESKAPE

CC(C)(C)CC(C)(C)c1ccc(OCCOCC[N+](C)(C)Cc2ccccc2)cc1 [benzethonium chloride]
cells remaining after exposure (optical density relative to starting values) [1]: 32.63%
cell recovery (viability, CFU/mL vs no drug control) [1]: 0%

N=C1NC[C@H](CCCCN2C[C@H](CC3CCCCC3)N(CCCCC3CCCCC3)C2=N)N1CCc1cccc(C(F)(F)F)c1 [Compound 8]
stacked score activity, 100/MIC, S [6]: 10
stacked score activity, 100/MIC, K [7]: 20
stacked score activity, 100/MIC, A [8]: 20
stacked score activity, 100/MIC, E [9]: 20
stacked score activity, 100/MIC, E [10]: 20
pathogens against which the compound showed activity at 5 ug/ml [11]: EKAPE
pathogens against which the compound showed activity at 10 ug/ml [11]: ESKAPE
pathogens against which the compound showed activity at 25 ug/ml [11]: ESKAPE

CCCCCCCN1C(=N)N(CCCC[C@H]2CNC(=N)N2CCCCC2CCCCC2)C[C@H]1Cc1cccc2ccccc12 [Compound 13]
stacked score activity, 100/MIC, S [6]: 20
stacked score activity, 100/MIC, K [7]: 20
stacked score activity, 100/MIC, A [8]: 20
stacked score activity, 100/MIC, E [9]: 20
stacked score activity, 100/MIC, E [10]: 20
pathogens against which the compound showed activity at 5 ug/ml [11]: ESKAE
pathogens against which the compound showed activity at 10 ug/ml [11]: ESKAE
pathogens against which the compound showed activity at 25 ug/ml [11]: ESKAPE

CCCCCCCN1C(=N)N(CCCC[C@H]2CNC(=N)N2CCC23CC4CC(CC(C4)C2)C3)C[C@H]1Cc1cccc2ccccc12 [Compound 22]
stacked score activity, 100/MIC, S [6]: 20
stacked score activity, 100/MIC, K [7]: 20
stacked score activity, 100/MIC, A [8]: 25
stacked score activity, 100/MIC, E [9]: 20
stacked score activity, 100/MIC, E [10]: 25
pathogens against which the compound showed activity at 4 ug/ml [11]: EAP
pathogens against which the compound showed activity at 5 ug/ml [11]: ESKAE
pathogens against which the compound showed activity at 10 ug/ml [11]: ESKAE
pathogens against which the compound showed activity at 25 ug/ml [11]: ESKAPE

CCCC[C@H]1CN(CCCC[C@H]2CNC(=N)N2CCCCC2CCCCC2)C(=N)N1CCCCC1CCCCC1 [Compound 11]
stacked score activity, 100/MIC, S [6]: 20
stacked score activity, 100/MIC, K [7]: 20
stacked score activity, 100/MIC, A [8]: 25
stacked score activity, 100/MIC, E [9]: 20
stacked score activity, 100/MIC, E [10]: 50
pathogens against which the compound showed activity at 5 ug/ml [11]: ESAPE
pathogens against which the compound showed activity at 10 ug/ml [11]: ESKAPE
pathogens against which the compound showed activity at 25 ug/ml [11]: ESKAPE

Triton-X100
hemolysis [12]: 100%

CCCCCCCN1C(=N)N(CCCC[C@H]2CNC(=N)N2CCCCC2CCCCC2)C[C@@H]1CCCC [Compound 10]
stacked score activity, 100/MIC, S [6]: 25
stacked score activity, 100/MIC, K [7]: 20
stacked score activity, 100/MIC, A [8]: 25
stacked score activity, 100/MIC, E [9]: 20
stacked score activity, 100/MIC, E [10]: 25
pathogens against which the compound showed activity at 4 ug/ml [11]: ESAP
pathogens against which the compound showed activity at 5 ug/ml [11]: ESKAPE
pathogens against which the compound showed activity at 10 ug/ml [11]: ESKAPE
pathogens against which the compound showed activity at 25 ug/ml [11]: ESKAPE

benzalkonium chloride [listing 2 of 2 here]
cells remaining after exposure (optical density relative to starting values) [1]: 28.56%

C[C@H]1c2cccc(O)c2C(=O)C2=C(O)[C@]3(O)C(=O)C(C(N)=O)=C(O)[C@@H](N(C)C)[C@@H]3[C@@H](O)[C@@H]21 [doxycycline]
cell recovery (viability, CFU/mL vs no drug control) [1]: 92%
